In data set [1] the test system is B/Massachusetts/71 (Massachusetts/B). The experiment in a line: Screening of antiviral activity in MDCK II cells, Massachusetts/B. Type of data set: cell-based, influenza virus. The note with it: for antiviral effect: MOI 0.001, 48 h, CellTiter-Glo, normalized to aprotinin = 100%; for antiviral efficacy compared among the tested atropopeptides: statement made for the four strains together. A general note: Cellular ATP, detected with luciferase, serves as a proxy for viable cell number.

For a further data set, the system named is A/Hessen/1/2003 (H3N2). The data set is described as follows: Screening of antiviral activity in MDCK II cells, H3N2. The format is cell-based, influenza virus. The note with it: for antiviral effect: MOI 0.001, 48 h, CellTiter-Glo, normalized to aprotinin = 100%; for antiviral efficacy compared among the tested atropopeptides: statement made for the four strains together.

A further data set relates to VCAM1. The format is cell-based, mouse. The note with it: b.End.3 cells, 1 µg/ml LPS, peptide 1 µg/ml added 8 hours after stimulation, for 60 h, flow cytometry, n = 6 technical replicates.
The test system of data set [2] is A/Hamburg/05/2009 (H1N1pdm). The experiment in a line: Screening of antiviral activity in MDCK II cells, H1N1pdm. The note with it: for antiviral effect: MOI 0.001, 48 h, CellTiter-Glo, normalized to aprotinin = 100%; for antiviral efficacy compared among the tested atropopeptides: statement made for the four strains together. The format is cell-based, influenza virus.

The next data set concerns ICAM1. The format is cell-based, mouse. The note with it: b.End.3 cells, 1 µg/ml LPS, peptide 1 µg/ml added 8 hours after stimulation, for 60 h, flow cytometry, n = 6 technical replicates. A general note: A flow cytometer gives signals particle by particle.
Data set [3] concerns B/Malaysia/2506/2004 (Malaysia/B). The experiment in a line: Screening of antiviral activity in MDCK II cells, Malaysia/B. The format is cell-based, influenza virus. The note with it: for antiviral effect: MOI 0.001, 48 h, CellTiter-Glo, normalized to aprotinin = 100%; for antiviral efficacy compared among the tested atropopeptides: statement made for the four strains together.

The next data set concerns MDCK II cells. The note with it: 100 µM, 48 h, CellTiter-Glo.

Consider “H-WYIW-OH (also: sidechain bridge or staple (positions not given here)) [compound 1, scabrirubin CB-1, cyclic tetrapeptide from S. albus/pUWL-LauA + ScaB, C–N biaryl crosslink between Trp-1 and Trp-4]”, for which the antiviral effect result (in data set [1]; in the data set on A/Hessen/1/2003 (H3N2); in data set [2]; in data set [3]) was “dose-dependent antiviral effect” each time. Moreover, the “antiviral efficacy compared among the tested atropopeptides” value (in data set [1]; in the data set on A/Hessen/1/2003 (H3N2); in data set [2]; in data set [3]) was “comparable antiviral efficacies” each time. Moreover, the “VCAM1 expression (mean fluorescence intensity)” value (shortened to “VCAM1 expression”) in the data set with VCAM1 is on record as “unchanged”. The “ICAM1 expression (mean fluorescence intensity)” value (from here on “ICAM1 expression”) in the data set on ICAM1 is recorded as “slight reduction”. For the same substance, the “cytotoxicity toward MDCK II cells (cell viability, ATP)” value (“cytotoxicity toward MDCK II cells” for short) in the data set with MDCK II cells is given as “did not show cytotoxicity”.
Turning to “H-WYQWL-OH (also: sidechain bridge or staple (positions not given here)) [compound 3, scabrirubin CB-3, cyclic pentapeptide from S. albus/pUWL-SvaA + ScaB with C–N biaryl crosslink]”, the antiviral effect entry (in data set [1]; in the data set with A/Hessen/1/2003 (H3N2); in data set [2]; in data set [3]) was “dose-dependent antiviral effect” throughout. Further, the “antiviral efficacy compared among the tested atropopeptides” value (in data set [1]; in the data set with A/Hessen/1/2003 (H3N2); in data set [2]; in data set [3]) was “slightly reduced activity” each time. Besides, in the data set with VCAM1, the “VCAM1 expression” value is “significantly reduced”. Also, the “ICAM1 expression” value in the data set on ICAM1 is reported as “significantly reduced”. Moreover, in the data set with MDCK II cells, the “cytotoxicity toward MDCK II cells” value is “did not show cytotoxicity”.
With scabrirubin [reference compound], the antiviral effect result (in data set [1]; with A/Hessen/1/2003 (H3N2); in data set [2]; in data set [3]) was “dose-dependent antiviral effect” each time. Besides, the “antiviral efficacy compared among the tested atropopeptides” value (in data set [1]; in the data set with A/Hessen/1/2003 (H3N2); in data set [2]; in data set [3]) was “comparable antiviral efficacies” each time. For the same substance, the “VCAM1 expression” value in the data set with VCAM1 is “slightly elevated”. Moreover, the “ICAM1 expression” value in the data set on ICAM1 was “slight reduction”. In the data set on MDCK II cells, the “cytotoxicity toward MDCK II cells” value was “did not show cytotoxicity”.

These data come from paper PMC12352619, “Phylogeny-guided discovery of a promiscuous P450 macrocyclase for the production of diverse atropopeptides” (Chemical Science, 2025).
